The values that follow come from patent publication US9574174B2, “Cell culture” (PLASTICELL LIMITED, priority 2002, dated 2017).

Structures are written as SMILES.

In series [1] the test system is mouse ES cells. The experiment in a line: RT-PCR detection of differential gene expression in ES cell units after split-split culture. The class given is cell-based. The note with it: DMEM, 1 μM, FIG. 11. On the procedure:
Pluripotent mouse ES cell units were cultured for five days in ES cell medium (see example 3), the ES medium was decanted and the cell units washed twice with PBS to remove traces of ES medium. The bead population was split into three groups, and the PBS decanted and replaced with one of (i) ES cell medium; (ii) Dulbecco's modified Eagle's medium (DMEM) with 10% fetal calf serum; or (iii) Chemically Defined Medium (CDM; Wiles M V, Johansson B M, 1999, Exp. Cell Res., vol 247, p. 241-8). After one hour culture under standard conditions, each of the three groups were split into three further groups, each of which was incubated in one of: (i) the medium in which the cell groups were cultured; the medium in which the cell groups were cultured including 1 μM LiCl; or (iii) the medium in which the cell groups were cultured including 1 μm retinoic acid (RA). Every other day half the medium was replaced with the respective fresh medium.
Cell units of mouse ES cells induced to differentiate by split-split culture (see example 4) were washed with PBS, and RNA prepared from the cell units using Rneasy reagents according to manufacturer's instructions (Qiagen). RNA samples were then used to prepare first strand cDNA with oligo-dT priming using reverse transcriptase according to the manufacturer's instructions (Invitrogen). […]

Series [2] concerns cytochrome P450 (CyP450) metabolic enzymes. The experiment in a line: CyP450 ethoxyresorufin assay on HepG2 cell units. The class given is cell-based, human. As to the method: A split-pool culture experiment was performed in order to assay tissue culture conditions that might affect a particular cellular process, namely the expression and/or activity of cytochrome P450 (CyP450) metabolic enzymes. Members of this class of enzyme, such as 1A1 and 1A2, can be assayed with the use of a substrate, ethoxyresorufin, that is enzymatically hydrolyzed to produce a product, resorufin, that has distinct fluorescence characteristics that can be used to measure CyP450 enzyme activity. The expression of CyP450 enzymes can be regulated by inducer molecules, such as β-naphthoflavone, and inhibitors such as α-naphthoflavone, quinidine, or aminotriazole. It is also possible for some molecules to induce expression of a CyP450 gene(s), but inhibit activity of the enzyme product of that gene. Therefore, complicated patterns of expression and activity can arise according to the pattern of serial exposure of cells to regulatory compounds. […]
For the CyP450 assay, aliquots of beads in growth medium were removed and the enzyme substrate ethoxyresorufin was added to a final concentration of 10 μM. The samples of beads were placed on a microscope slide with a cover slip, and observed immediately with an epifluorescent microscope using a standard filter set for Texas Red/rhodamine fluorescence (see FIG. 9). […]

Consider `[Cl-].[Li+]` [LiCl], for which the “decrease in Oct4” value in series [1] is “inhibited the reduction”.

Turning to `O=c1cc(-c2ccccc2)oc2ccc3ccccc3c12` [β-naphthoflavone], the “P450 level / conversion of ethoxyresorufin to fluorescent product” value in series [2] (HepG2 cell units following a split pool experiment, FIG. 9 Panels E/F) is reported as “high levels of P450”. Further, the “time until enzyme activity (resorufin fluorescence) is evident after addition of ethoxyresorufin” value in series [2] (HepG2 cell units on CYTODEX 3 treated in a control experiment, 10 μM ethoxyresorufin, control cells about 15-20 minutes) lay within 5 to 10 min.
